Results: patent US20260048046A1, “METHOD FOR IMPROVING GROWTH PERFORMANCE IN FEEDLOT CATTLE” (Elanco US Inc., priority 2022, published 2026)

System: beef steers
Test: Lubabegron removal period study: carcass measures
Format: in vivo, cattle
Conditions: for Calculated YG / Ribeye Area / HCW / Marbling / Dressing: Lubabegron 3.5 mg/kg DM fed 56 d; for HCW: steers; for Marbling: 500 = Small; for Dressing: final liveweight with 4% shrink
Experimental: This experiment was conducted to evaluate the effect of removing lubabegron from feed for increasing intervals prior to slaughter on growth performance of steers.
Seven hundred English x Continental cross steers (initial BW=531±8.8 kg) were used in a randomized complete block design with seven treatments. Pen served as the experimental unit. […] Animals were managed as two-time replications with each replication containing five blocks (7 pens/block and 10 steers/pen). All ten blocks started and ended within 48 hours of each other. Cattle were weighed by pen using a 45,000-kg capacity pen scale (Model WI-130, Avery Weigh-Tronix LLC, Fairmont, MN; 3.66 m×21.34 m). All treatments were on feed for 71 d with harvest scheduled for 72 d. Because of an impending weather event, cattle were weighed to obtain a final BW one d early. Cattle were placed on their respective ration for the additional d and then shipped to the harvest facility the following morning.
657 head were transported to a harvest facility approximately 495 km from the research facility. Animals were scored for animal mobility using the North American Meat Institute (NAMI, 2015) scoring scale described by Edwards-Callaway et al., (2017) while in lairage. […] Experienced staff collected an ear tag number, plant identification (ID), and carcass sequence and applied a unique carcass ID. Data collected on the kill floor included HCW, instances of excessive trim (>approximately 9 kg), and prevalence of liver abscess (Brown et al., 1975). Other carcass measures were obtained via instrument grading.
Continuous variables were analyzed using the Mixed procedure of SAS (version 9.4; SAS Institute, Cary, NC). Block served as a random effect whereas treatment was fixed. Initial body weight was used to describe the uniformity of cattle randomized to treatment and used as a covariate when appropriate. Data were calculated with deads and removals excluded. Linear and quadratic effects of lubabegron removal were conducted as were individual comparisons for duration of removal (i.e., 0 vs 2 d; 0 vs 4 d, 0 vs 6 d; 0 vs 8 d and 0 vs 16 d). Fisher's Exact test was evaluated on mobility scores 1 and 2. No test was conducted on mobility scores of 3 or 4 because no scores were reported. Simple means and standard deviation of the tissues collected for the 5 animals were calculated.

CC(C)(Cc1ccc(Oc2ncccc2C#N)cc1)NC[C@H](O)COc1ccccc1-c1cccs1 [LUB, 2-{4-[2-({(2S)-2-Hydroxy-3-[2-(2-thienyl)phenoxy]propyl}amino)-2-methylpropyl]phenoxy}nicotinonitrile]
Calculated YG (removal duration 0 d): 3.08
Ribeye Area (removal duration 0 d): 91.0 cm^2
HCW (removal duration 0 d): 409 kg
Marbling (removal duration 0 d): 482
Dressing (removal duration 0 d): 62.7%
Calculated YG (removal duration 2 d): 3.20
Ribeye Area (removal duration 2 d): 90.3 cm^2
HCW (removal duration 2 d): 411 kg
Marbling (removal duration 2 d): 491
Dressing (removal duration 2 d): 62.7%
Calculated YG (removal duration 4 d): 3.21
Ribeye Area (removal duration 4 d): 90.3 cm^2
HCW (removal duration 4 d): 413 kg
Marbling (removal duration 4 d): 488
Dressing (removal duration 4 d): 62.8%
Calculated YG (removal duration 6 d): 3.06
Ribeye Area (removal duration 6 d): 91.6 cm^2
HCW (removal duration 6 d): 410 kg
Marbling (removal duration 6 d): 483
Dressing (removal duration 6 d): 62.9%
Calculated YG (removal duration 8 d): 3.14
Ribeye Area (removal duration 8 d): 90.3 cm^2
HCW (removal duration 8 d): 413 kg
Marbling (removal duration 8 d): 483
Dressing (removal duration 8 d): 63.0%
Calculated YG (removal duration 16 d): 3.18
Ribeye Area (removal duration 16 d): 89.0 cm^2
Marbling (removal duration 16 d): 484
Dressing (removal duration 16 d): 62.6%
Effect of removal duration on any measured carcass parameter (lubabegron 3.5 mg/kg DM, removal 0 to 16 d, P>0.05): no effect
Calculated yield grade improvement vs non-treated group (lubabegron fed for 56 d with a 0 d removal): 10.5%
Effects on BW and HCW of duration of lubabegron removal (removal up to 16 d): not affected
